# Columns and labels:
# [1] = Solubility remark in the HT-29 table; format: physicochemical; details: printed in the IC50 column of TABLE I
# [2] = system: SW-480 colon adenocarcinoma cells; experiment: Apoptosis: DNA fragmentation assay (Cell Death Detection ELISA plus); format: cell-based; details: Homo sapiens, SW480, SW-480, 48 hrs; for EC50: apoptosis
# Procedure: (§1) The compounds of this invention were assayed for their effect on the human colon carcinoma cell lines HT-29 and SW-480 obtained from ATCC (Rockville, Md.), representative of precancerous lesions to ascertain the degree of tumor growth inhibition following treatment with compounds of this invention. The cell line employed for these experiments is well characterized, and is used by the United States National Cancer Institute in their screening program for new anticancer drugs. Growth inhibition of this cell line is thought to be indicative of a benefit on precancerous lesions and neoplasms.
# Apoptosis was measured based on the amount of fragmented DNA contained in cell lysates. Briefly, SW-480 colon adenocarcinoma cells were plated at a density of 10K cells/well in 180 μl to 96-well microtitre plates ("MTP"), and incubated for 24 hrs. Cells were then treated with 20 μl aliquots appropriately diluted compound, and allowed to incubate for 48 hrs.
# After the incubation, samples were prepared according to the following steps. […] Samples were analyzed immediately, because storage at 4 C or […] reduces the ELISA-signals.
# Samples were then processed according to a DNA fragmentation assay protocol, and dose-response curves were generated based on optical density readings. […] The assay is based on a quantitative sandwich-enzyme-immunoassay-principle using mouse monoclonal antibodies directed against DNA and histones, respectively. […]
# According to the vendor, the assay works in the following fashion. […] After removal of unbound antibodies by a washing step, the amount of nucleosomes is quantified by the POD retained in the immunocomplex. POD is determined photometrically with ABTS® (2,2'-Azino-di[3-ethylbenzthiazolin-sulfonat])* as substrate.
# Fold stimulation (FS=ODmax/ODveh), an indicator of apoptotic response, was determined for each compound data analysis software, or by estimates based on the effective concentration range of each compound (ECR=min. effective dose-min. dose to peak effect).
# [3] = system: HT-29 human colon carcinoma cells; experiment: HT-29 tumor cell growth inhibition / cytotoxicity (Sulforhodamine B Assay); format: cell-based; details: 168 h, HT-29, seven days continuous exposure
# Procedure: as §1
# Tumor cell cytotoxicity was assessed using the Sulforhodamine B Assay. In this assay, HT-29 tumor cells were plated in 96-well plates and treated with drug-containing media for seven days (continuous exposure). At the end of the exposure period, the cell were fixed and stained with sulforhodamine B (a pink fluorescent dye). The dye was then solubilized, and the optical density of the resulting pink solution determined on a 96-well plate reader. The mean dye intensity of the treated wells was then divided by the mean dye intensity in the control wells (6 wells of each) to determine the effect of the drug on the cells. Dye intensity is proportional to the number of cells or amount of protein per well. The resultant "percent of control" value then represents the degree of growth inhibition caused by the drug.
# For each experiment, an IC50 value was determined and used for comparative purposes. This value is equivalent to the concentration of drug needed to inhibit tumor cell growth by 50%. IC50 values were obtained graphically by connecting the mean values for each drug concentration tested. Each experiment included at least six wells per drug concentration. Concentration was plotted on a log scale on the X-axis.
# [4] = sulfoxide itself, believed; cited from earlier work
# [5] = system: polyps; details: when the patient take the drug; cited from earlier work
# [6] = system: prostaglandin synthesis; details: acknowledged / regarded; cited from earlier work
compound,measurement,setting,value
"CC1=C(CNC(=O)NC(C)C)c2cc(F)ccc2/C1=C\c1ccc(S(C)(=O)=O)cc1 [Example 21, (Z)-N-{[5-Fluoro-2-methyl-1-(p-methylsulfonylbenzylidene)inden-3-yl]-methyl}-N'-isopropyl urea]",solubility (reason for IC50 N/A),[1],not very soluble
"CC1=C(CNC(=O)NCCCN(C)C)c2cc(F)ccc2/C1=C\c1ccc(S(C)(=O)=O)cc1 [Example 22, (Z)-N-{[5-Fluoro-2-methyl-1-(p-methylsulfonyl-benzylidene)-inden-3-yl]-methyl}-N'-dimethylaminopropyl urea]",EC50,[2],75 µM
same,IC50,[3],4.4 to 5.4 µM
"CC1=C(CNC(=O)NCc2ccccc2)c2cc(F)ccc2/C1=C\c1ccc(S(C)(=O)=O)cc1 [Example 23, (Z)-N-{[5-Fluoro-2-methyl-1-(p-methylsulfonyl-benzylidene)-inden-3-yl]-methyl}-N'-benzyl urea]",IC50,[3],1.6 to 3.2 µM
"CC1=C(CNC(=O)NCC(N)=O)c2cc(F)ccc2/C1=C\c1ccc(S(C)(=O)=O)cc1 [Example 24, (Z)-N-{[5-Fluoro-2-methyl-1-(p-methylsulfonyl-benzylidene)-inden-3-yl]-methyl}-N'-glycinamide urea]",solubility (reason for IC50 N/A),[1],not very soluble
"CC1=C(CNC(=O)OC(C)C)c2cc(F)ccc2/C1=C\c1ccc(S(C)(=O)=O)cc1 [Example 25, (Z)-N-{[5-Fluoro-2-methyl-1-(p-methylsulfonyl-benzylidene)-inden-3-yl]-methyl}-O-isopropyl urethane]",IC50,[3],3.2 to 4 µM
"COC(=O)NCC1=C(C)/C(=C/c2ccc(S(C)(=O)=O)cc2)c2ccc(F)cc21 [Example 26, (Z)-N-{[5-Fluoro-2-methyl-1-(p-methylsulfonyl-benzylidene)-inden-3-yl]-methyl}-O-methyl urethane]",maximal fold induction,"[2]; FS=ODmax/ODveh, read-out: Fold Stimulation",5 to 6.8
same,EC50,[2],250 µM
same,IC50,[3],4.5 to 8 µM
"CCOC(=O)NCC1=C(C)/C(=C/c2ccc(S(C)(=O)=O)cc2)c2ccc(F)cc21 [Example 27, (Z)-N-{[5-Fluoro-2-methyl-1-(p-methylsulfonyl-benzylidene)-inden-3-yl]-methyl}-O-ethyl urethane]",IC50,[3],4.1 µM
"COCCOC(=O)NCC1=C(C)/C(=C/c2ccc(S(C)(=O)=O)cc2)c2ccc(F)cc21 [Example 28, (Z)-N-{[5-Fluoro-2-methyl-1-(p-methylsulfonyl-benzylidene)-inden-3-yl]-methyl}-O-methoxyethyl urethane]",IC50,[3],7.1 to 11 µM
"CC1=C(CC(=O)O)c2cc(F)ccc2/C1=C\c1ccc([S+](C)[O-])cc1 (stereo not drawn) [Sulindac, (Z)-5-fluoro-2-methyl-1-(4-methylsulfinylbenzylidene)inden-3-ylacetic acid]",activity as an anti-arthritic agent,[4],inactive
same,effect on polyps,[5],Polyps virtually disappear
CSc1ccc(/C=C2/C(C)=C(CC(=O)O)c3cc(F)ccc32)cc1 [sulfide],activity as a prostaglandin (synthesis) inhibitor,[6],active moiety as a prostaglandin inhibitor
CC1=C(CC(=O)O)c2cc(F)ccc2/C1=C\c1ccc(S(C)(=O)=O)cc1 [sulfone],activity as a prostaglandin (synthesis) inhibitor,[6],inactive

# From patent US6300346A, “Indenyl hydroxamic acids, (hydroxy) ureas and urethanes for treating patients with precancerous lesions” (Cell Pathways, Inc., priority 2000, dated 2001)
